Measurements: patent US20200378993A1, “MEDICAL USES OF APOLIPOPROTEIN A AND ACTIVATORS THEREOF” (FUNDACIÓN IMDEA ALIMENTACIÓN, priority 2017, published 2020)

Tests used:
Assay type in all cases: cell-based, human
apolipoprotein A1 = assay: ApoA1 immunodetection by Western blot; details: RVX-208 (30 μM) versus DMSO carrier
Protocol: FIG. 7. A) Proliferation curve in a viability assay carried out by means of XCELLigence technology. Growth of DLD1 cells treated with DMSO as the drug carrier and with Rvx-208 (30 μM). The significant differences existing in the slope of the graph, and therefore in the growth dynamics of the treated cells are shown in the right panel (****p-value<0.0001). B) Migration and invasion assays. The method followed was the same as the one described in FIG. 2 (*p-value=0.0407; ****p-value<0.0001). C) Expression levels of proteins E-cadherin and Vimentin in the presence and absence of Rvx-208. Analysis performed by means of quantitative PCR. The relative expression levels normalized with respect to the untreated control are shown. D) ABCA1, ApoA1, caveolin-1, and α-tubulin immunodetection by means of Western blot. α-tubulin acts as load control. The results of the cells treated with Rvx-208 (30 μM) or with the DMSO carrier are shown. E) Cholesterol flux in cells treated with Rvx-208. The inventors were able to confirm said results based on the treatment of DLD1 cells expressing ABCA1 with RVX-208 under the conditions already described in detail in Example 3. […] The levels of caveolin-1, a protein whose increased levels have been associated with increases in cell migration and invasion, were also analyzed in this experiment.

[1] = tested on: D1D1 cell lines expressing increased ApoA1 levels (D_ApoA1); assay: Cell viability and proliferation (xCELLigence) with ShApoA1/scramble transfection; details: 30 μM RVX-208, ApoA1 expression not inhibited (Scr+Rvx-208); D_ApoA1 cells
Protocol: FIG. 9: A) Proliferation curve in a viability assay carried out by means of XCELLigence technology. Growth of DLD1 cells treated with DMSO as the drug carrier and with Rvx-208 (30 μM). Control cells (scramble, SCR) are shown in black. Cells transfected with anti-ApoA1 short hairpin are shown in gray. The significant differences existing in the values of the slope of the graphs on the left-hand side, and therefore in the growth dynamics of the treated cells, are shown in the right panels (*p-value=0.0471; **p-value=0.0067; ****p-value<0.0001). B) Invasion assays in cells with silenced ApoA1 expression. For the purpose of confirming that the effects of RVX-208 in cell phenotype recovery were due to the increase in ApoA-1 expression, the inventors inhibited the expression of said protein by means of transfection of a complementary small RNA, ShApoA1 (FIG. 9). Twenty-four hours after transfection with ShApoA1 expression vector, the inventors started treatment with 30 μM of RVX-208. Cell viability and proliferation in DLD1 cells (D_NoORF) and D1D1 cell lines expressing increased ApoA1 levels (D_ApoA1 ) were analyzed with the xCELLigence system.

E-cadherin = assay: Epithelial-mesenchymal transition marker expression by quantitative PCR; details: RVX-208 30 μm 72 hours then 15 μM
Protocol: (§1) FIG. 4. A) Proliferation curve in a viability assay carried out by means of XCELLigence technology. Growth of DLD1 cells treated with DMSO as the drug carrier and with Rvx-208 (30 μM). The significant differences existing in the slope of the graph, and therefore in the growth dynamics of the treated cells are shown in the right panel (**p-value=0.0087). B) Image representing the untreated cell cultures and those treated with Rvx-208. Expression levels of proteins E-cadherin and vimentin in the presence and absence of Rvx-208. Analysis performed by means of quantitative PCR. The relative expression levels normalized with respect to the untreated control are shown. C) Migration and invasion assays in the presence of Rcx-208. FIG. 7. A) Proliferation curve in a viability assay carried out by means of XCELLigence technology. Growth of DLD1 cells treated with DMSO as the drug carrier and with Rvx-208 (30 μM). The significant differences existing in the slope of the graph, and therefore in the growth dynamics of the treated cells are shown in the right panel (****p-value<0.0001). B) Migration and invasion assays. The method followed was the same as the one described in FIG. 2 (*p-value=0.0407; ****p-value<0.0001). C) Expression levels of proteins E-cadherin and Vimentin in the presence and absence of Rvx-208. Analysis performed by means of quantitative PCR. The relative expression levels normalized with respect to the untreated control are shown. D) ABCA1, ApoA1, caveolin-1, and α-tubulin immunodetection by means of Western blot. α-tubulin acts as load control. The results of the cells treated with Rvx-208 (30 μM) or with the DMSO carrier are shown. E) Cholesterol flux in cells treated with Rvx-208. The same assays were repeated by replacing ApoA1 with a treatment with RVX-208. In this case, DLD1 cells were pre-treated for 72 hours before the start of the experiment with RVX-208 at a concentration of 30 μm and were subjected to a treatment with 15 μM of RVX-208 during the development of the experiments. […] The inventors were able to confirm said results based on the treatment of DLD1 cells expressing ABCA1 with RVX-208 under the conditions already described in detail in Example 3. In this case, the DLD1 cells overexpressing ABCA1 were pre-treated for 72 hours before the start of the experiment with RVX-208 at a concentration of 30 μm and were subjected to a treatment with 15 μM of RVX-208 during the development of the experiments. […] The levels of caveolin-1, a protein whose increased levels have been associated with increases in cell migration and invasion, were also analyzed in this experiment.

vimentin = assay: as above; details: RVX-208 30 μm 72 hours then 15 μM
Protocol: as §1

[2] = tested on: DLD1 cells overexpressing ABCA1; assay: Growth of Matrigel-embedded spheroids; details: treatment with Rvx-208; Matrigel-embedded spheroids from DLD1 cells overexpressing ABCA1
From the text: FIG. 8: A) Growth of spheroids derived from control cells and cells overexpressing ABCA1. The top panels correspond to the control treatment (carrier), the bottom panels correspond to treatment with Rvx-208. The growth curves represent the mean volume of a total of 30 spheroids per cell line. The inventors were able to confirm said results based on the treatment of DLD1 cells expressing ABCA1 with RVX-208 under the conditions already described in detail in Example 3. In this case, the DLD1 cells overexpressing ABCA1 were pre-treated for 72 hours before the start of the experiment with RVX-208 at a concentration of 30 μm and were subjected to a treatment with 15 μM of RVX-208 during the development of the experiments. […] The levels of caveolin-1, a protein whose increased levels have been associated with increases in cell migration and invasion, were also analyzed in this experiment.

[3] = DLD1 cells overexpressing ABCA1

With `COc1cc(OC)c2c(=O)[nH]c(-c3cc(C)c(OCCO)c(C)c3)nc2c1` [RVX-208, 2-(4-(2-hydroxyethoxy)-3,5-dimethylphenyl)-5,7-dimethoxyquinazolin-4(3H)-one] the “apolipoprotein A1 expression levels” value (apolipoprotein A1) was “increase in apolipoprotein A1 expression levels”, the proliferation indices [1] was “significantly lower” and the E-cadherin expression levels (E-cadherin; DLD1 cells) was “increase in E-cadherin expression levels”. The E-cadherin expression levels (E-cadherin; [3]) was “increase in E-cadherin expression levels”, the vimentin levels (vimentin; DLD1 cells) was “decrease in vimentin levels” and the vimentin levels (vimentin; [3]) was “decrease in vimentin levels”. The “growth of three-dimensional structures (spheroids)” value [2] was “slows down the growth”.
